Experimental data taken from PMC5216742, “Discovery and characterization of a novel potent type II native and mutant BCR-ABL inhibitor (CHMFL-074) for Chronic Myeloid Leukemia (CML)” (Oncotarget, 2016).

What was measured:
ABL1 kinase = biological target: T1, ABL1 kinase (Homo sapiens, UniProt P00519); assay: Invitrogen Z'LYTE biochemical kinase assay
T1 construct: A construct encoding c-ABL residues 229–500 with a His tag; made in house; host or cells: SF9 insect cells (baculovirus, pFASTHTA)
Description: A construct encoding c-ABL residues 229–500 with a His tag was cloned into baculovirus expression vector pFASTHTA. The protein was expressed by infecting SF9 cells with high titer viral stocks for 48 hours. Cells were harvested and lysed in 30 mM Tris pH 7.4, 150 mM NaCl, 3 mM KCl, 10% glycerol, 1 mM PMSF, 2 mM TCEP, 1 mM ADP, 20 mM Imidazole. The supernatant was loaded to Ni-NTA Column (QIAGEN, 1018244). Then the proteins were gradient washed using the same buffer with 50 mM, 100 mM imidazole, then the ABL protein was eluted with Elution buffer (20 mM Tris, 500 mM NaCl, 1% glycerol, 1 mM TCEP, 0.5 mM ADP, 300 mM Imidazole, pH 8.0). The eluted protein was loaded on desalt column PD-10(GE) to change the buffer to 20 mM Tris, 500 mM NaCl, 1% glycerol, 2 mM TCEP, pH 8.0. The protein was concentrated to 1 mg/ml and aliquots were frozen and stored at −80 °C.
The fluorescence resonance energy transfer-based Z′-LYTE kinase assay (Invitrogen, USA) was used to evaluate the IC50 value of CHMFL-074 for inhibition of ABL and KIT kinase. […] After 1 hour incubation, the reaction was developed and terminated, and the fluorescence measured with an automated plate reader (SpectraMax I3, USA). […]

[1] = biological target: T2, ABL1(E255K)-phosphorylated (Homo sapiens, UniProt P00519, E255K); assay: KinomeScan profiling; format: binding; conditions: 1 µM CHMFL-074; read-out: % Control
T2 construct: purchased DiscoveRx (KinomeScan service)

ABL1-phosphorylated = biological target: T3, ABL1-phosphorylated (Homo sapiens, UniProt P00519); assay: KinomeScan profiling; format: binding; conditions: 1 µM CHMFL-074; read-out: % Control
T3 construct: purchased DiscoveRx (KinomeScan service)

DDR1 = biological target: T4, DDR1 (Homo sapiens, UniProt Q08345); assay: KinomeScan profiling; format: binding; conditions: 1 µM CHMFL-074; read-out: % Control
T4 construct: purchased DiscoveRx (KinomeScan service)
T4 sequence (Q08345 19-913): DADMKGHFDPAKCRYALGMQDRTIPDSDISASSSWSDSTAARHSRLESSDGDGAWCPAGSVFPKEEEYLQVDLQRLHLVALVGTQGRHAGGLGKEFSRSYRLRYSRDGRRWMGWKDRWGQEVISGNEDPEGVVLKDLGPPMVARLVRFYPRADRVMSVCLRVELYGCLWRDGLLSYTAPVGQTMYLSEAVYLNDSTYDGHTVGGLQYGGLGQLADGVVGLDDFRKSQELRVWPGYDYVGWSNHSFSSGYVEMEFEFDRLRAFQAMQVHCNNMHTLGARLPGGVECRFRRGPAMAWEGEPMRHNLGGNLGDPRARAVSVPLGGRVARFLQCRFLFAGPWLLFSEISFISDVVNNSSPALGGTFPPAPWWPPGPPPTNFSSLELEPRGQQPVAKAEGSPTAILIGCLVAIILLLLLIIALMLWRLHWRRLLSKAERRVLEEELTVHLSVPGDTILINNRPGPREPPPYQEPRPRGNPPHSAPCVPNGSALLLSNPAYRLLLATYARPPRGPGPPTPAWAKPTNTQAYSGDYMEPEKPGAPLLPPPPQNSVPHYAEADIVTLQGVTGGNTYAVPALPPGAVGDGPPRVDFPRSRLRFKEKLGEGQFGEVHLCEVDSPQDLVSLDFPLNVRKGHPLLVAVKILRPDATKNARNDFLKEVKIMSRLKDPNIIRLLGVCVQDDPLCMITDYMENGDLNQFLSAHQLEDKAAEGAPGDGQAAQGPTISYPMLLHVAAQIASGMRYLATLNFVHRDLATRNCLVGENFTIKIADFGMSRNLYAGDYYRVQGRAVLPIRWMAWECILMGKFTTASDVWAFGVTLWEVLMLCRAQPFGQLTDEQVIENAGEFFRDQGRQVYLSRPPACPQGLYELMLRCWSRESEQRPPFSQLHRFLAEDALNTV

[2] = system: BCR-ABL positive CML patient primary cells; assay: Patient primary cell proliferation assay; format: cell-based; conditions: Homo sapiens, read-out: half effective inhibitory concentrations
Description: Mononuclear cells were isolated from CML patients or healthy donors by density-gradient centrifugation through Ficoll (Beijing Solarbio Science & Technology Co., Ltd., Beijing, China) at 400 g for 30 min, followed by two washes in 1× phosphate-buffered saline. Cells were then cultured in liquid culture (RPMI1640, supplemented with 20% FBS). All blood samples from CML patients and healthy donors were obtained through written consent under approval of the Chinese Academy of Sciences Institutional Review Board. The ethics committees approved the consent Procedure. CML primary patient cells were tested in liquid culture (RPMI1640, supplemented with 20% FBS) in the presence of different concentrations of CHMFL-074. The trypan blue exclusion assay was used for quantification of cells for seeding for before Cell-Titer Glo assays (Promega, USA). The Cell-Titer Glo assay was used for proliferation studies and carried out according to manufacturer's instructions. Cell viability is reported as percentages of control (untreated) cells.

KIT(V559D) = biological target: T5, KIT(V559D) (Homo sapiens, UniProt P10721, V559D); assay: KinomeScan profiling; format: binding; conditions: 1 µM CHMFL-074; read-out: % Control
T5 construct: purchased DiscoveRx (KinomeScan service)
T5 sequence (P10721 26-976 V559D): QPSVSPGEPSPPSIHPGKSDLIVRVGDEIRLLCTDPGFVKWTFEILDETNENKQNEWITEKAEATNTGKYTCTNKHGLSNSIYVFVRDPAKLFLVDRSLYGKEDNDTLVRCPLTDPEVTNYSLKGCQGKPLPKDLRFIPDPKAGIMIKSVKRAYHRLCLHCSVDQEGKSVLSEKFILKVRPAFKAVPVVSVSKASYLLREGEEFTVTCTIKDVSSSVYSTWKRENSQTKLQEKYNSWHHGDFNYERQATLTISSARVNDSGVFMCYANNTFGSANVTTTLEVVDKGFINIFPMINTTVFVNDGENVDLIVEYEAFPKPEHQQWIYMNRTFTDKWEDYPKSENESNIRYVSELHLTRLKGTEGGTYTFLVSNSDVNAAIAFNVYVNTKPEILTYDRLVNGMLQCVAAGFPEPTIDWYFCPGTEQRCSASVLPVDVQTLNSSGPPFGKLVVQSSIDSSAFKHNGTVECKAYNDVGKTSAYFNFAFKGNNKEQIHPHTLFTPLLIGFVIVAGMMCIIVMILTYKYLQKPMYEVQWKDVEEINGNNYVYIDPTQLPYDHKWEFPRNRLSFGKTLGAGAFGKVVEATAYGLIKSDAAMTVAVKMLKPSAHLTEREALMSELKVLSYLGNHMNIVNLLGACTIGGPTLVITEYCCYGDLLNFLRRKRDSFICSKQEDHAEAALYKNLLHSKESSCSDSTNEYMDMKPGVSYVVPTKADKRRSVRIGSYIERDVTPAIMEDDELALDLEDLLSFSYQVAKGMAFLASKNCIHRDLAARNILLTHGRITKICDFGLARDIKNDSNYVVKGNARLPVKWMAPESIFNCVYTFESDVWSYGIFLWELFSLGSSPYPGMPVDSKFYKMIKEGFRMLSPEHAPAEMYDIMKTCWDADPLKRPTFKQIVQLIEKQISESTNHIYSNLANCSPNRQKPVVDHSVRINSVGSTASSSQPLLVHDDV

[3] = biological target: T6, ABL1(Y253F)-phosphorylated (Homo sapiens, UniProt P00519, Y253F); assay: KinomeScan profiling; format: binding; conditions: 1 µM CHMFL-074; read-out: % Control
T6 construct: purchased DiscoveRx (KinomeScan service)

With `Cc1ccc(NC(=O)c2ccc(CN3CCN(C)CC3)c(C(F)(F)F)c2)cc1OC1CCN(C(=O)c2cccnc2)CC1` [CHMFL-074] the IC50 (ABL1 kinase) was 25 nM, the remaining binding at 1 µM [1] was 0.3% and the remaining binding at 1 µM (ABL1-phosphorylated) was 0.2%. The remaining binding at 1 µM (DDR1) was less than 1%, the IC50 [2] was 300 to 1000 nM and the remaining binding at 1 µM (KIT(V559D)) was 0.45%. For the same molecule, the remaining binding at 1 µM [3] was 0.3%.
